Conditions: 101.33 kPa, Crystal, Vacuum adiabatic calorimetry

O=P([O-])([O-])[O-].[Lu+3] [lutetium phosphate]
Conditions | molar entropy [J/K/mol]
6 K | 0.012
8 K | 0.0284
10 K | 0.0553
12 K | 0.095
14 K | 0.152
16 K | 0.226
18 K | 0.322
20 K | 0.441
25 K | 0.858
30 K | 1.47
35 K | 2.28
40 K | 3.29
45 K | 4.48
50 K | 5.82
55 K | 7.3
60 K | 8.89
65 K | 10.58
70 K | 12.33
75 K | 14.15
80 K | 16.02
85 K | 17.93
90 K | 19.88
95 K | 21.85
100 K | 23.84
110 K | 27.89
120 K | 31.97
130 K | 36.07
140 K | 40.18
150 K | 44.27
160 K | 48.34
170 K | 52.38
180 K | 56.34
190 K | 60.33
200 K | 64.24
210 K | 68.09
220 K | 71.89
230 K | 75.64
240 K | 79.34
250 K | 82.98
260 K | 86.56
270 K | 90.09
280 K | 93.57
290 K | 96.99
300 K | 100.4
310 K | 103.7
320 K | 106.9
